Measured values taken from paper PMC6440977, “Nucleoside analogue activators of cyclic AMP-independent protein kinase A of Trypanosoma” (Nature Communications, 2019).
Values joined by “and” are separate entries in the source; they are usually repeats but may differ in a detail not shown here. Identical values can stand only once. Like-named read-outs stand apart in the source and are kept apart here.

How the values were obtained:
[1] = biological target: T. brucei PKAR(199–499) (Trypanosoma brucei, UniProt Q9GU80); assay: biochemical; format: binding; design: Thermodynamics (ITC) -TΔS / Thermodynamics (ITC) ΔG / Thermodynamics (ITC) ΔH: unit: kcal/mol
[2] = tested on: PKAC1/2; format: cell-based, Trypanosoma brucei; details: for PKAC1/2 Western quantification: normalized to PFR, WT 0h set to 1, individual replicates; for PKAC1/2 counts / PKAC1/2 normalized / PKAC1/2 fold change: 4 µM; for PKAC1/2 normalized: normalized to PFR-A/C; for PKAC1/2 fold change: untreated WT set to 1;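 for all read-outs here: trypanosoma brucei cells, PKAC1/2 signal from western blots read on an infrared fluorescence scanning system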
[3] = biological target: T. brucei PKA (Trypanosoma brucei brucei, UniProt Q9GU80); assay: In vivo PKA reporter assay (VASP Ser-157 phosphorylation, western blot); format: cell-based;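 note: T. brucei cells expressing human VASP as heterologous PKA substrate, compound exposure at 37 °C, western blot of phospho (50 kDa) versus unphosphorylated (46 kDa) VASP band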
[4] = biological target: T. brucei PKAR-PKAC1 holoenzyme (Trypanosoma brucei, UniProt Q9GU80); assay: biochemical; format: biochemical; details: for In vitro kinase assay: technical replicates
[5] = tested on: T. brucei ∆pkar/∆pkar (pkar KO) cells; assay: microbe, parasite or virus in culture; format: cell-based, Trypanosoma brucei; details: Trypanosoma brucei
[6] = tested on: T. brucei BSF cells (WT); assay: Alamar blue cell viability assay, wild type;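 note: trypanosomes seeded at 5×10^3 per ml and grown 72 h with compound, then resazurin 0.5 mM added for 4 h as the viability read-out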
[7] = tested on: RXXS*/T* site phosphorylation; assay: Western blot of global RXXS*/T* site phosphorylation (phospho-PKA substrate antibody); format: cell-based, Trypanosoma brucei; details: wild type, 2 µM, 10 min
[8] = tested on: metacaspase 4 (MCA4); format: cell-based, Trypanosoma brucei; details: for MCA4 counts / MCA4 normalized / MCA4 fold change: 4 µM; for MCA4 normalized: normalized to PFR-A/C; for MCA4 fold change: untreated WT set to 1
[9] = tested on: T. brucei phosphoproteome; assay: Quantitative phosphoproteomics; format: cell-based, Trypanosoma brucei
Method: For each sample, 6 × 10^8 T. brucei cells treated or not with 8 µM 7-cyano-7-deazainosine for 15 min were lysed in 300 µl 4% (w/v) sodium deoxycholate, 0.1 M Tris, pH 8.5 for 5 min at 95 °C (according to the protocol of Humphrey et al.[78]). Samples were sonicated using a Bioruptor (Diagenode) (high power, two cycles of 10 min each, 30 s on/off). Protein concentration was determined by BCA protein assay and samples were adjusted to equal concentrations. Sample preparation and mass spectrometry were exactly carried out as described by Humphrey et al.[78]. MaxQuant 1.5.2.8[79] was used to identify proteins and quantify by LFQ with the following parameters: Database, TriTrypDB-39_TbruceiTREU927_AnnotatedProteins; MS tol, 10 ppm; MS/MS tol, 0.5 Da; Peptide FDR, 0.1; Protein FDR, 0.01 Min. peptide Length, 5; Variable modifications, Oxidation (M), Phosphorylation (STY); Fixed modifications, Carbamidomethyl (C); Peptides for protein quantitation, razor and unique; Min. peptides, 1; Min. ratio count, 2. For proteomic analysis, identified proteins were considered as statistically significant with FDR ≤ 0.05 and s0 = 1 (two-sided Student’s T-test adjusted for multiple comparisons by Benjamini–Hochberg correction, Perseus[80]). […] The mass spectrometry phosphoproteomics data have been deposited to the ProteomeExchange Consortium via the PRIDE partner repository (https://www.ebi.ac.uk/pride/archive) with the dataset identifier PXD012245. GO enrichment analysis was performed in TriTrypDB with default settings and visualized in Revigo (http://revigo.irb.hr). The motif discovery tool MoMo (using the motif-x algorithm) implemented in the MEME suite (http://meme-suite.org/) was used for unbiased motif discovery in the phosphoproteome dataset with the T. brucei TriTrypDB-40_TbruceiTREU927 protein database as background. Enriched sequence logos were visualized using CLC Main Workbench 7 (https://www.qiagenbioinformatics.com/).

[10] = treated (Act) vs control (Crtl), significant, FDR ≤ 0.05, s0=2, 4 replicates

T. brucei PKAR-PKAC1 holoenzyme, sequence (Q38DR5 entry or part of it): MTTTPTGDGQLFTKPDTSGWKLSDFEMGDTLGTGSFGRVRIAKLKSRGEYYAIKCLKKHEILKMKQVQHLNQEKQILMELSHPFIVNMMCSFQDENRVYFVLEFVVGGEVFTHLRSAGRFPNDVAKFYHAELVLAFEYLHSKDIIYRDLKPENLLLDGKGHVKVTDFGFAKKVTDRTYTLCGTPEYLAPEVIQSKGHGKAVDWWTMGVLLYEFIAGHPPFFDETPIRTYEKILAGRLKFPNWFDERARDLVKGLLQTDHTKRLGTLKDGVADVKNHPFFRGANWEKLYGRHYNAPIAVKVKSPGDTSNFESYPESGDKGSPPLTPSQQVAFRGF
T. brucei PKAR-PKAC1 holoenzyme, sequence (Q9GU80 entry or part of it): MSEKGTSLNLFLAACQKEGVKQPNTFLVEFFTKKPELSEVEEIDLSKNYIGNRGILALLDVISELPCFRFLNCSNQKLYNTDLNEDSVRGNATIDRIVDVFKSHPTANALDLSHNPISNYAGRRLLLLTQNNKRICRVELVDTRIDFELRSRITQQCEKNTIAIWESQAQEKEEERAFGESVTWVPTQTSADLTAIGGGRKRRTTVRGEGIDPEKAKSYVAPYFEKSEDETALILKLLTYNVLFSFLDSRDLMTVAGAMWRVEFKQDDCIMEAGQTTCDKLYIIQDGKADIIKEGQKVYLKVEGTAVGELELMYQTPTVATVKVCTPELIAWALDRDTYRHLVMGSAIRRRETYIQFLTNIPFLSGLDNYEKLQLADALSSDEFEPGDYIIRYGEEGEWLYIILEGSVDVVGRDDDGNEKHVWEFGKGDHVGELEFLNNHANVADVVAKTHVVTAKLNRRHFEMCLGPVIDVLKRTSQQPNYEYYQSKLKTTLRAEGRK
T. brucei PKAR(199–499), sequence (Q9GU80 entry or part of it): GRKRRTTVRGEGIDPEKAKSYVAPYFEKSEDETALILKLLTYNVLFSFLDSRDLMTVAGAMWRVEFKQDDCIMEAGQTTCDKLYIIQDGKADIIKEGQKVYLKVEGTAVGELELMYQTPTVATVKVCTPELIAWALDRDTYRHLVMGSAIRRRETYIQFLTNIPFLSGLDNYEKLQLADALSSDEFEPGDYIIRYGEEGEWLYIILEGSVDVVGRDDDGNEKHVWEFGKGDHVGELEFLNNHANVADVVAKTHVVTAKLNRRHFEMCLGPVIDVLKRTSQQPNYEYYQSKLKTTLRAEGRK
T. brucei PKA, sequence (Q38DS1 entry or part of it): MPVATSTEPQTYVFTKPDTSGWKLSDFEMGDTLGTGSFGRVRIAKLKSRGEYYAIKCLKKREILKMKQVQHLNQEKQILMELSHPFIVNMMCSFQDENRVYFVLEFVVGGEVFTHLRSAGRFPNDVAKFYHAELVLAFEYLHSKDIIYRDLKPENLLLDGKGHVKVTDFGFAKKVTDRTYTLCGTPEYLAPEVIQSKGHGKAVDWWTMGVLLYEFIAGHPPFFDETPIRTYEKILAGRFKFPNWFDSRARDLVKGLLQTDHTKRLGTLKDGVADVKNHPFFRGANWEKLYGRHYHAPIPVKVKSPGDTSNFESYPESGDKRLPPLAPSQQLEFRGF
T. brucei PKA, sequence (Q38DR5 entry or part of it, further chain): as the sequence (Q38DR5 entry or part of it) above

In the case of `N#Cc1cn([C@@H]2O[C@H](CO)[C@@H](O)[C@H]2O)c2ncnc(O)c12` [7-CN-7-C-Ino, 7-Cyano-7-deazainosine], the Kd ([1]; 298 K, mean ± SD, n=3, read-out: KD in vitro binding to PKAR (ITC)) is reported as 0.008 ± 0.002 µM, the “−TΔS (entropic component of binding)” value ([1]; ITC, mean) is reported as -2.3 kcal/mol and the “Thermodynamics (ITC) -TΔS” value ([1]; independent replicates) is reported as -2.82 and -2.13 and -1.91. The “Thermodynamics (ITC) ΔG” value ([1]; independent replicates) was -11.3 and -10.9 and -11, the “Thermodynamics (ITC) ΔH” value ([1]; independent replicates) was -8.48 and -8.8 and -9.1 and the “Molar ratio of binding (ITC)” value ([1]; ligand to protein, mean ± SD, n=3) was 2 ± 0.2. The “higher binding affinity to PKAR compared to Toyo” value ([1]; ratio of KD) was 7 fold, the “PKAC1/2 Western quantification” value ([2]; R KO cells, 6 h treatment) was 0.4425 and 0.1597 and 0.1981 and the “PKAC1/2 Western quantification” value ([2]; R KO cells, 12 h treatment) was 0.2802 and 0.2063 and 0.2365. The “PKAC1/2 Western quantification” value ([2]; WT cells, 6 h treatment) was 0.4685 and 0.4579 and 0.5439, the “PKAC1/2 Western quantification” value ([2]; WT cells, 12 h treatment) was 0.3997 and 0.2606 and 0.4376 and the PKAC1/2 counts ([2]; WT, 12 h) was 99.53. It also gave a PKAC1/2 normalized ([2]; WT, 12 h) of 60.689, a PKAC1/2 fold change ([2]; WT, 12 h) of 0.4385 and a PKAC1/2 counts ([2]; WT, 18 h) of 76. It also gave a PKAC1/2 normalized ([2]; WT, 18 h) of 55.0725, a PKAC1/2 fold change ([2]; WT, 18 h) of 0.3979 and a PKAC1/2 counts ([2]; WT, 24 h) of 86.74. For the same compound, the PKAC1/2 normalized ([2]; WT, 24 h) was 55.6026, the PKAC1/2 fold change ([2]; WT, 24 h) was 0.4018 and the PKAC1/2 counts ([2]; pkar KO, 12 h) was 70.66. The PKAC1/2 normalized ([2]; pkar KO, 12 h) was 3.197, the PKAC1/2 fold change ([2]; pkar KO, 12 h) was 0.1969 and the PKAC1/2 counts ([2]; pkar KO, 18 h) was 69.65. It also gave a PKAC1/2 normalized ([2]; pkar KO, 18 h) of 3.869, a PKAC1/2 fold change ([2]; pkar KO, 18 h) of 0.2383 and a PKAC1/2 counts ([2]; pkar KO, 24 h) of 95.11. The PKAC1/2 normalized ([2]; pkar KO, 24 h) was 3.187, the PKAC1/2 fold change ([2]; pkar KO, 24 h) was 0.1963 and the “VASP phosphorylation in PKAC3 deletion + PKAC1/2 RNAi cell line, in words” value ([3]; 4 µM, 15 min) was “undetectable”. The EC50 ([3]; read-out: EC50 in vivo PKA assay, VASP reporter, 15 min treatment, mean ± SD) was 0.838 ± 0.139 µM, the “In vitro kinase assay” value ([4]; 0.00014 µM) was 0.05 U/ml and 0.04 U/ml (2×) and the “In vitro kinase assay” value ([4]; 0.00041 µM) was 0.05 U/ml. The “In vitro kinase assay” value ([4]; 0.00123 µM) was 0.08 U/ml and 0.07 U/ml (2×), the “In vitro kinase assay” value ([4]; 0.0037 µM) was 0.12 U/ml and the “In vitro kinase assay” value ([4]; 0.01111 µM) was 0.16 U/ml (2×) and 0.18 U/ml. The “In vitro kinase assay” value ([4]; 0.03333 µM) was 0.2 U/ml and 0.19 U/ml (2×), the “In vitro kinase assay” value ([4]; 0.1 µM) was 0.18 U/ml and 0.17 U/ml and 0.19 U/ml and the “In vitro kinase assay” value ([4]; 0.3 µM) was 0.17 U/ml and 0.2 U/ml and 0.16 U/ml. The “higher activation potency on purified holoenzyme compared to Toyo” value ([4]; ratio of EC50) was 36 fold, the IC50 ([5]; 72 h, read-out: IC50 growth pkar KO) was ≥ 125 µM and the EC50 ([5]; read-out: EC50, Alamar blue cell viability assay, KO, individual replicate results, pkar KO cells, fit ambiguous, bound given in µM) was > 125 µM. For the same compound, the “increase of EC50 for cell viability compared to Toyo” value [6] was > 170 fold, the IC50 ([6]; Trypanosoma brucei, 72 h, read-out: IC50 growth WT) was ≥ 125 µM and the EC50 ([6]; Trypanosoma brucei, read-out: EC50, Alamar blue cell viability assay, WT, individual replicate results, wild type cells, fit ambiguous, bound given in µM) was > 125 µM. The “effect on growth or viability, in words” value ([6]; continuous treatment) was “does not produce these PKA-independent effects”, the “increase in global RXXS*/T* site phosphorylation” value [7] was 3–4 fold and the “Western quantification, KO + Ino” value ([8]; KO cells + Ino, normalized to PFR, WT set to 1, individual replicates, protein not given) was 0.3769 and 0.643 and 0.8892. For the same compound, the “Western quantification, WT + Ino” value ([8]; WT cells + Ino, normalized to PFR, WT set to 1, individual replicates, protein not given) was 3.707 and 4.121 and 2.558, the MCA4 counts ([8]; WT, 12 h) was 9.21 and the MCA4 normalized ([8]; WT, 12 h) was 5.616. It also gave an MCA4 fold change ([8]; WT, 12 h) of 0.3804, an MCA4 counts ([8]; WT, 18 h) of 7.41 and an MCA4 normalized ([8]; WT, 18 h) of 5.37. The MCA4 fold change ([8]; WT, 18 h) was 0.3637, the MCA4 counts ([8]; WT, 24 h) was 7.18 and the MCA4 normalized ([8]; WT, 24 h) was 4.603. The MCA4 fold change ([8]; WT, 24 h) was 0.3117, the MCA4 counts ([8]; pkar KO, 12 h) was 8.83 and the MCA4 normalized ([8]; pkar KO, 12 h) was 0.3995. The MCA4 fold change ([8]; pkar KO, 12 h) was 0.8235, the MCA4 counts ([8]; pkar KO, 18 h) was 9.5 and the MCA4 normalized ([8]; pkar KO, 18 h) was 0.5278. For the same compound, the MCA4 fold change ([8]; pkar KO, 18 h) was 1.088, the MCA4 counts ([8]; pkar KO, 24 h) was 10.63 and the MCA4 normalized ([8]; pkar KO, 24 h) was 0.3562. The MCA4 fold change ([8]; pkar KO, 24 h) was 0.7342, the “MCA4 abundance, in words” value ([8]; wild type, 12 h post induction) was “decreased” and the “downregulated phosphosites (number)” value ([9]; 8 µM, 15 min) was 84. For the same compound, the “downregulated phosphosites containing PKA motifs” value ([9]; 8 µM, 15 min) was 19%, the “upregulated phosphosites containing PKA motifs” value ([9]; 8 µM, 15 min) was 77% and the “significantly upregulated phosphosites (number)” value ([9]; 8 µM, 15 min, FDR ≤ 0.05, s0 = 2) was 642. For the same compound, the “Difference, phosphopeptide Tb11.v5.1036.1 gamma-tubulin complex subunit, putative, S120” value [9, 10] was 3.988, the “Difference, phosphopeptide Tb927.10.630 hypothetical protein, conserved, S331” value [9, 10] was 2.868 and the “Difference, phosphopeptide Tb927.10.8410 hypothetical protein, conserved, S234” value [9, 10] was 2.478.
